Data reported in US5075289A, “9-R-azacyclic erythromycin antibiotics” (priority 1988, dated 1991).
Converted amounts (≈) assume the structure as drawn. Read-outs that look alike come from different tables or passages of the source.

Key:
Format in all cases: cell-based
[1] = test system: Enterococcus faecium ATCC 8043; assay: In vitro antibacterial activity, agar dilution MIC; details: ATCC8043, E. faecium ATCC 8043, Brain Heart Infusion agar, 20-24 hours, read-out: MIC
Method: (§1) The antimicrobial spectra of a number of compounds of the invention were tested by the following method:
(§2) Twelve petri dishes containing successive aqueous dilutions of the test compound mixed with 10 ml of sterilized Brain Heart Infusion agar (Difco 0418-01-5) are prepared. Each plate is inoculated with 1:100 (or 1:10 for slow growing strains, primarily Micrococcus and Streptococcus) dilutions of up to 32 different microorganisms, using a Steers replicator block The inoculated plates are incubated at 35°-37° C. for 20-24 hours. In addition, a control plate, using BHI agar containing no test compound, is prepared and incubated at the beginning and end of each test.
(§3) An additional plate containing a compound having known susceptibility patterns for the organisms being tested and belonging to the same antibiotic class as the test compound is also prepared and incubated as a further control, as well as to provide test-to-test comparability. Erythromycin A was used for this purpose.
(§4) After incubation, each disk is read. The MIC is defined as the lowest concentration of drug yielding no growth, a slight haze, or sparsely isolated colonies on the inoculum spot as compared to the growth control.

Escherichia coli DC-2 = assay: In vitro antibacterial activity, agar dilution MIC; details: DC2, E. coli DC-2, Brain Heart Infusion agar, 20-24 hours, read-out: MIC
Method: as §1, §2, §3, §4

Escherichia coli H560 = assay: In vitro antibacterial activity, agar dilution MIC; details: H560
Method: as §1, §2, §3, §4

Escherichia coli Juhl = assay: In vitro antibacterial activity, agar dilution MIC; details: E. coli Juhl, Brain Heart Infusion agar, 20-24 hours, read-out: MIC
Method: as §1, §2, §3, §4

Escherichia coli SS = assay: In vitro antibacterial activity, agar dilution MIC; details: E. coli SS, Brain Heart Infusion agar, 20-24 hours, read-out: MIC
Method: as §1, §2, §3, §4

[2] = test system: Micrococcus luteus ATCC 4698; assay: In vitro antibacterial activity, agar dilution MIC; details: ATCC4698, M. luteus ATCC 4698, Brain Heart Infusion agar, 20-24 hours, read-out: MIC
Method: as §1, §2, §3, §4

[3] = test system: Micrococcus luteus ATCC 9341; assay: In vitro antibacterial activity, agar dilution MIC
Method: as §1, §2, §3, §4

Staphylococcus aureus 45 = assay: In vitro antibacterial activity, agar dilution MIC; details: S. aureus 45, Brain Heart Infusion agar, 20-24 hours, read-out: MIC
Method: as §1, §2, §3, §4

[4] = test system: Staphylococcus aureus A5177; assay: In vitro antibacterial activity, agar dilution MIC; details: S. aureus A5177, Brain Heart Infusion agar, 20-24 hours, read-out: MIC
Method: as §1, §2, §3, §4

[5] = test system: Staphylococcus aureus ATCC 6538P; assay: In vitro antibacterial activity, agar dilution MIC; details: ATCC6538P, S. aureus ATCC 6538P, Brain Heart Infusion agar, 35-37° C., 20-24 hours, read-out: MIC
Method: as §1, §2, §3, §4

[6] = test system: Staphylococcus aureus CMX 503A; assay: In vitro antibacterial activity, agar dilution MIC; details: CMX503A, S. aureus CMX 503A, Brain Heart Infusion agar, 20-24 hours, read-out: MIC
Method: as §1, §2, §3, §4

[7] = test system: Staphylococcus aureus CMX 553; assay: In vitro antibacterial activity, agar dilution MIC; details: CMX553, S. aureus CMX 553, Brain Heart Infusion agar, 20-24 hours, read-out: MIC
Method: as §1, §2, §3, §4

[8] = test system: Staphylococcus aureus CMX 686B; assay: In vitro antibacterial activity, agar dilution MIC; details: CMX686B, S. aureus CMX 686B, Brain Heart Infusion agar, 20-24 hours, read-out: MIC
Method: as §1, §2, §3, §4

[9] = test system: Staphylococcus epidermidis 3519; assay: In vitro antibacterial activity, agar dilution MIC; details: S. epidermidis 3519, Brain Heart Infusion agar, 20-24 hours, read-out: MIC
Method: as §1, §2, §3, §4

[10] = test system: Streptococcus agalactiae CMX 508; assay: In vitro antibacterial activity, agar dilution MIC
Method: as §1, §2, §3, §4

[11] = test system: Streptococcus bovis A5169; assay: In vitro antibacterial activity, agar dilution MIC
Method: as §1, §2, §3, §4

[12] = test system: Streptococcus pyogenes 2548 INDUC; assay: In vitro antibacterial activity, agar dilution MIC; details: S. pyogenes 2548 INDUC, Brain Heart Infusion agar, 20-24 hours, read-out: MIC
Method: as §1, §2, §3, §4

[13] = test system: Streptococcus pyogenes 930 CONST; assay: In vitro antibacterial activity, agar dilution MIC
Method: as §1, §2, §3, §4

[14] = test system: Streptococcus pyogenes EES61; assay: In vitro antibacterial activity, agar dilution MIC; details: S. pyogenes EES61, Brain Heart Infusion agar, 20-24 hours, read-out: MIC
Method: as §1, §2, §3, §4

[15] = test system: Staphylococcus aureus 45 RAR 2; assay: microbe, parasite or virus in culture; details: 45RAR2
Method: as §1, §2, §3, §4

SMILES	MIC [1] [µg/mL]	MIC (Escherichia coli DC-2) [µg/mL]	MIC (Escherichia coli H560) [µg/mL]	MIC (Escherichia coli Juhl) [µg/mL]	MIC (Escherichia coli SS) [µg/mL]	MIC [2] [µg/mL]	MIC (Staphylococcus aureus 45) [µg/mL]	MIC [4] [µg/mL]	MIC [5] [µg/mL]	MIC [6] [µg/mL]	MIC [7] [µg/mL]	MIC [8] [µg/mL]	MIC [9] [µg/mL]	MIC [12] [µg/mL]	MIC [14] [µg/mL]	MIC [15] [µg/mL]	also measured
CC[C@H]1OC(=O)[C@H](C)[C@@H](O[C@H]2C[C@@](C)(OC)[C@@H](O)[C@H](C)O2)[C@H](C)[C@@H](O[C@@H]2O[C@H](C)C[C@H](N(C)C)[C@H]2O)[C@](C)(O)C[C@@H](C)[C@@H](N2CCN(C(C)=O)CC2)[C@H](C)[C@@H](O)[C@]1(C)O [Example 16]	0.78 (≈ 0.922 µM)	> 100	50 (≈ 59.1 µM)	> 100	1.56 (≈ 1.84 µM)	1.56 (≈ 1.84 µM)	1.56 (≈ 1.84 µM)	50 (≈ 59.1 µM)	1.56 (≈ 1.84 µM)	1.56 (≈ 1.84 µM)	1.56 (≈ 1.84 µM)	1.56 (≈ 1.84 µM)	1.56 (≈ 1.84 µM)	50 (≈ 59.1 µM)	0.1 (≈ 0.118 µM)	3.1 (≈ 3.66 µM)	MIC ([3]; ATCC9341, read-out: MIC): 0.2 µg/mL (≈ 0.236 µM); MIC ([10]; CMX508, S. agalactiae CMX 508, Brain Heart Infusion agar, 20-24 hours, read-out: MIC): 0.39 µg/mL (≈ 0.461 µM); MIC [11]: 0.1 µg/mL (≈ 0.118 µM); MIC ([13]; 930CONST): > 100 µg/mL
CC[C@H]1OC(=O)[C@H](C)[C@@H](O[C@H]2C[C@@](C)(OC)[C@@H](O)[C@H](C)O2)[C@H](C)[C@@H](O[C@@H]2O[C@H](C)C[C@H](N(C)C)[C@H]2O)[C@](C)(O)C[C@@H](C)[C@@H](N2CCN(C(=O)OCc3ccccc3)CC2)[C@H](C)[C@@H](O)[C@]1(C)O [Example 18]	0.39 (≈ 0.416 µM)	> 100	50 (≈ 53.3 µM)	> 100	3.1 (≈ 3.3 µM)	0.78 (≈ 0.831 µM)	0.78 (≈ 0.831 µM)	12.5 (≈ 13.3 µM)	0.78 (≈ 0.831 µM)	0.78 (≈ 0.831 µM)	0.78 (≈ 0.831 µM)	0.78 (≈ 0.831 µM)	0.78 (≈ 0.831 µM)	12.5 (≈ 13.3 µM)	0.1 (≈ 0.107 µM)	1.56 (≈ 1.66 µM)	MIC ([3]; ATCC9341): 0.1 µg/mL (≈ 0.107 µM); MIC ([10]; CMX508, read-out: MIC): 0.2 µg/mL (≈ 0.213 µM); MIC ([11]; S. bovis A5169, Brain Heart Infusion agar, 20-24 hours, read-out: MIC): 0.05 µg/mL (≈ 0.0533 µM); MIC ([13]; S. pyogenes 930 CONST, Brain Heart Infusion agar, 20-24 hours, read-out: MIC): 50 µg/mL (≈ 53.3 µM)
